Data reported in ChEMBL document CHEMBL1201862, “PubChem BioAssay data set” (2004).
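In this assay, cells in 96-well plates receive the compound at five concentrations for 48 hours. Endpoints are linearly interpolated between the surrounding concentrations. At the GI50, growth is halved.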 Calls of active or inactive are those of the source. Cut-off read from the data, not from the text of the source: active = GI50 up to about 1.1 µM and inactive = higher.

Columns and labels:
Assay in all cases: NCI anticancer screen, dose series, 48 h
[1] = test system: EKVX
[2] = test system: OVCAR-3
[3] = test system: HCT-116
[4] = test system: SF-295
[5] = test system: MDA-N
[6] = test system: UO-31
[7] = test system: HOP-62
[8] = test system: SNB-19
[9] = test system: T47D
[10] = test system: NCI/ADR-RES
[11] = test system: PC-3
[12] = test system: OVCAR-8
[13] = test system: CAKI-1
[14] = test system: TK-10
[15] = test system: CCRF-CEM
[16] = test system: HOP-92
[17] = test system: MOLT-4
[18] = test system: MDA-MB-435
[19] = test system: OVCAR-4
[20] = test system: KM12

SMILES | GI50 [1] | GI50 [2] | GI50 [3] | GI50 [4] | GI50 [5] | GI50 [6] | GI50 [7] | GI50 [8] | GI50 [9] | GI50 [10] | GI50 [11] | GI50 [12] | GI50 [13] | GI50 [14] | GI50 [15] | GI50 [16] | GI50 [17] | GI50 [18] | GI50 [19] | GI50 [20]
ClCCCCCc1c2nc(c(CCCCCCl)c3ccc([nH]3)c(CCCCCCl)c3nc(c(CCCCCCl)c4ccc1[nH]4)C=C3)C=C2 | > 100 µM (inactive) | > 100 µM (inactive) | > 100 µM (inactive) | > 100 µM (inactive) | > 100 µM (inactive) | > 100 µM (inactive) | > 100 µM (inactive) | > 100 µM (inactive) | > 100 µM (inactive) | > 100 µM (inactive) | > 100 µM (inactive) | > 100 µM (inactive) | > 100 µM (inactive) | > 100 µM (inactive) | > 100 µM (inactive) | > 100 µM (inactive) | > 100 µM (inactive) | > 100 µM (inactive) | > 100 µM (inactive) | > 100 µM (inactive)
O=C1NC2c3c(I)sc(I)c3/C(=N\O)C2O1 (stereo not given) | 10.9 µM (inactive) | 18.2 µM (inactive) | 25.1 µM (inactive) | 45.6 µM (inactive) | 33.6 µM (inactive) | 15.7 µM (inactive) | 30.5 µM (inactive) | 21.7 µM (inactive) | 35.2 µM (inactive) | 20.4 µM (inactive) | 39.2 µM (inactive) | 18.4 µM (inactive) | 32.7 µM (inactive) | 48.5 µM (inactive) | 24.3 µM (inactive) | 19.2 µM (inactive) | 28.2 µM (inactive) | 26.5 µM (inactive) | 26.1 µM (inactive) | 30.1 µM (inactive)
CN1c2ccccc2C2c3c(O)ccc(O)c3C=C([N+](=O)[O-])C21 (stereo not given) | 1.67 µM (inactive) | 0.0329 µM (active) | 0.205 µM (active) | 2.53 µM (inactive) | 0.69 µM (active) | 0.521 µM (active) | 2.11 µM (inactive) | 0.619 µM (active) | 0.324 µM (active) | 1.04 µM (active) | 0.388 µM (active) | 0.286 µM (active) | 2.13 µM (inactive) | 11.2 µM (inactive) | 1.04 µM (active) | 2.28 µM (inactive) | 0.424 µM (active) | 0.199 µM (active) | 1.21 µM (inactive) | 0.39 µM (active)
Cc1cc(CS(=O)(=O)/C=C/c2ccccc2[N+](=O)[O-])c(CS(=O)(=O)/C=C/c2ccccc2[N+](=O)[O-])cc1C | 29.9 µM (inactive) | 49.1 µM (inactive) | 37 µM (inactive) | 16.9 µM (inactive) | > 27.9 µM (inactive) | > 82 µM (inactive) | 19.1 µM (inactive) | 28.1 µM (inactive) | > 100 µM (inactive) | 53.5 µM (inactive) | 42.4 µM (inactive) | 24.1 µM (inactive) | 35.7 µM (inactive) | 35.4 µM (inactive) | 21.5 µM (inactive) | 33.2 µM (inactive) | 70.1 µM (inactive) | > 41.9 µM (inactive) | 7.98 µM (inactive) | 81.8 µM (inactive)
N#CC1=C(N)N(/N=C/c2ccccc2)C(c2ccccc2)C1(C#N)C#N (stereo not given) | 20.2 µM (inactive) | 4.89 µM (inactive) | 2.81 µM (inactive) | 17.1 µM (inactive) | 16.1 µM (inactive) | 15.7 µM (inactive) | 16.8 µM (inactive) | 23.1 µM (inactive) | 6.87 µM (inactive) | 21.6 µM (inactive) | 16.4 µM (inactive) | 18.7 µM (inactive) | 4.61 µM (inactive) | 6.3 µM (inactive) | 1.9 µM (inactive) | 2.98 µM (inactive) | 2.23 µM (inactive) | 18.2 µM (inactive) | 14.9 µM (inactive) | 22.8 µM (inactive)
CCCCC(=C=C(C)CO)C1CCCN1C(=O)OC(C)(C)C (stereo not given) | 19.7 µM (inactive) | 17.5 µM (inactive) | 15.6 µM (inactive) | 16.3 µM (inactive) | 17.6 µM (inactive) | 22.9 µM (inactive) | 20 µM (inactive) | 23.3 µM (inactive) | 22.5 µM (inactive) | 16.8 µM (inactive) | 18.5 µM (inactive) | 18.2 µM (inactive) | 21.8 µM (inactive) | 19.4 µM (inactive) | 14.3 µM (inactive) | 12.7 µM (inactive) | 12.3 µM (inactive) | 18.8 µM (inactive) | 17.3 µM (inactive) | 18.4 µM (inactive)
O=C1C(Cl)=C(N2CCOCC2)C(=O)c2c(O)ccc(O)c21 | 1.46 µM (inactive) | 0.385 µM (active) | 0.213 µM (active) | 1.64 µM (inactive) | 0.176 µM (active) | 0.351 µM (active) | 0.853 µM (active) | 1.78 µM (inactive) | 0.839 µM (active) | 0.366 µM (active) | 0.536 µM (active) | 0.368 µM (active) | 0.433 µM (active) | 0.638 µM (active) | 0.473 µM (active) | 0.291 µM (active) | 1.35 µM (inactive) | 0.204 µM (active) | 0.256 µM (active) | 1.64 µM (inactive)
O=C1Nc2ccc(S(=O)(=O)NCCO)cc2/C1=C1/Nc2ccccc2C1=O | 7.69 µM (inactive) | 4.06 µM (inactive) | 3.13 µM (inactive) | 42 µM (inactive) | > 100 µM (inactive) | 52.5 µM (inactive) | 16.2 µM (inactive) | 8.81 µM (inactive) | 4.56 µM (inactive) | > 100 µM (inactive) | 12.2 µM (inactive) | 11 µM (inactive) | > 100 µM (inactive) | 18 µM (inactive) | 3.23 µM (inactive) | 13.8 µM (inactive) | 7.06 µM (inactive) | > 100 µM (inactive) | 3.06 µM (inactive) | 0.385 µM (active)
CC(ON(C(c1ccccc1)C(C)C)C(C)(C)C)c1ccccc1 (stereo not given) | 15.4 µM (inactive) | 16.4 µM (inactive) | 14.7 µM (inactive) | 14.9 µM (inactive) | 25.8 µM (inactive) | 24.5 µM (inactive) | 19.4 µM (inactive) | 18.5 µM (inactive) | 25.9 µM (inactive) | 23.1 µM (inactive) | 33.8 µM (inactive) | 21.8 µM (inactive) | 21.7 µM (inactive) | 22.4 µM (inactive) | 19.1 µM (inactive) | 20.6 µM (inactive) | 15 µM (inactive) | 25.5 µM (inactive) | 27 µM (inactive) | 18.4 µM (inactive)
Cc1ccc(-n2cc(-c3ccc(Cl)cc3)c3c(N/N=C4\SCC(=O)N4C)ncnc32)cc1 | 18.3 µM (inactive) | 10.8 µM (inactive) | 4.59 µM (inactive) | 2.67 µM (inactive) | 5.19 µM (inactive) | 46.3 µM (inactive) | 9.14 µM (inactive) | 9.59 µM (inactive) | 91.4 µM (inactive) | 6.65 µM (inactive) | 2.72 µM (inactive) | 5.09 µM (inactive) | 4.23 µM (inactive) | 2.64 µM (inactive) | > 100 µM (inactive) | 2.62 µM (inactive) | 38.9 µM (inactive) | 4.23 µM (inactive) | 2.48 µM (inactive) | 7.96 µM (inactive)
O=C1OC(c2ccccc2)=NC1c1ccccc1 (stereo not given) | > 100 µM (inactive) | > 100 µM (inactive) | > 100 µM (inactive) | > 100 µM (inactive) | > 100 µM (inactive) | > 100 µM (inactive) | > 100 µM (inactive) | > 100 µM (inactive) | > 100 µM (inactive) | > 100 µM (inactive) | > 100 µM (inactive) | > 100 µM (inactive) | > 100 µM (inactive) | > 100 µM (inactive) | > 100 µM (inactive) | > 100 µM (inactive) | > 100 µM (inactive) | > 100 µM (inactive) | > 100 µM (inactive) | > 100 µM (inactive)
COC(=O)c1ccccc1NCc1cc(O)ccc1O | 22 µM (inactive) | 16.7 µM (inactive) | 19.5 µM (inactive) | 17.9 µM (inactive) | 16.4 µM (inactive) | 17.5 µM (inactive) | 28.6 µM (inactive) | 39 µM (inactive) | 15.9 µM (inactive) | 19.2 µM (inactive) | 17 µM (inactive) | 18.1 µM (inactive) | 19.4 µM (inactive) | 26.1 µM (inactive) | 4.91 µM (inactive) | 17.7 µM (inactive) | 16.1 µM (inactive) | 17.8 µM (inactive) | 17.9 µM (inactive) | 17.5 µM (inactive)
COc1ccc2c(c1)[nH]c1c(/C=C/c3ccccc3)nccc12 | 12.6 µM (inactive) | 13.6 µM (inactive) | 12.1 µM (inactive) | 8.81 µM (inactive) | 16.2 µM (inactive) | 10.4 µM (inactive) | 15.7 µM (inactive) | 16 µM (inactive) | 23.5 µM (inactive) | 11 µM (inactive) | 16.1 µM (inactive) | 14.2 µM (inactive) | 14.5 µM (inactive) | 19.4 µM (inactive) | 17 µM (inactive) | 18.6 µM (inactive) | 7.55 µM (inactive) | 16.2 µM (inactive) | 19.6 µM (inactive) | 14.1 µM (inactive)
COc1ccc2c(CC(=O)O)cc(=O)oc2c1 | > 100 µM (inactive) | > 100 µM (inactive) | > 100 µM (inactive) | > 100 µM (inactive) | > 100 µM (inactive) | > 100 µM (inactive) | > 100 µM (inactive) | > 100 µM (inactive) | > 100 µM (inactive) | > 100 µM (inactive) | > 100 µM (inactive) | > 100 µM (inactive) | > 100 µM (inactive) | > 100 µM (inactive) | > 100 µM (inactive) | 86.1 µM (inactive) | > 100 µM (inactive) | > 100 µM (inactive) | > 100 µM (inactive) | > 100 µM (inactive)
